20 compounds from US8563714B2, “Bridged spiro [2.4] heptane derivatives as ALX receptor and/or FPRL2 agonists” (Actelion Pharmaceuticals Ltd., priority 2009, dated 2013) can be followed below.

For one assay, the target named is T1, human FPRL2 (Homo sapiens, UniProt P25089).
T1 construct: expressed in transfected cells; host or cells: HEK293 (HEK293-hFPRL2-Gα16)
T1 sequence (P25089 1-353): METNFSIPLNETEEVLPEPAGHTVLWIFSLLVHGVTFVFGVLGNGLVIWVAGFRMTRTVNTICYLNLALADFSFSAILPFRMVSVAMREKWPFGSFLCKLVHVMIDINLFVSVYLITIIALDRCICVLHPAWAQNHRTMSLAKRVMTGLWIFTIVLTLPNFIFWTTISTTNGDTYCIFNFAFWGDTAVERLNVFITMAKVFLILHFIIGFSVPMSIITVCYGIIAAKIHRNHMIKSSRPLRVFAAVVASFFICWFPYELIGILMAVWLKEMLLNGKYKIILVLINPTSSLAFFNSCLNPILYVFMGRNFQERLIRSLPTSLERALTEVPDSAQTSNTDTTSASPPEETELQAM
As to the kind of experiment: Intracellular calcium measurements (FLIPR), agonistic activity in HEK293-hFPRL2-Gα16 cells. The assay is classed as cell-based. The following applies: Fluo-4 calcium FLIPR, normalized to GLY14-Humanin 100 nM. The method in brief: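 Peak values after baseline subtraction are expressed relative to 100 nM Gly14-Humanin; compounds diluted in assay buffer from 10 mM DMSO stocks.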

The target of a further assay is T2, human ALX receptor (Homo sapiens, UniProt P25090).
T2 construct: expressed in transfected cells; host or cells: HEK293 (HEK293-hALXR-Gα16)
T2 sequence (P25090 1-351): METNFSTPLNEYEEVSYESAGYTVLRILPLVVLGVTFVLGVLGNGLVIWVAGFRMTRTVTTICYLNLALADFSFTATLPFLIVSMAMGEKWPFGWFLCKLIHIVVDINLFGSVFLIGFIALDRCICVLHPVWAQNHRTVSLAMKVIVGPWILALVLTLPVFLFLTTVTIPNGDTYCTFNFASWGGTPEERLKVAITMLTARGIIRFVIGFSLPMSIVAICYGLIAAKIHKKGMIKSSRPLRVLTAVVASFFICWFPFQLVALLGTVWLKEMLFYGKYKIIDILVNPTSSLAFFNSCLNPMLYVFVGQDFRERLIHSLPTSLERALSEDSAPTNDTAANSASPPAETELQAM
The assay can be described thus: Intracellular calcium measurements (FLIPR), agonistic activity in HEK293-hALXR-Gα16 cells. The assay is classed as cell-based. The note with it: Fluo-4 calcium FLIPR, normalized to WKYMVm 10 nM. In outline: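 HEK293 cells expressing hALXR and Gα16 were loaded with 1 μM Fluo-4 AM and 20 mM HEPES for 60 min at 37°C, then exposed to serially diluted compound. FLIPR fluorescence was read at ex 488/em 540 nm. Baseline-subtracted peak responses were normalized to 10 nM WKYMVm.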
A general note: Calcium flux is commonly read through the fluorescence of an indicator in the cells.

The term EC50 denotes the concentration needed to bring the measured effect to its halfway point. With `O=C(Cc1ccccc1Cl)NC[C@H]1[C@H](C(=O)Nc2ccc(Br)cc2)[C@@H]2C=C[C@H]1C21CC1` (racemic) [Example 162, (5R*)—N^5-(4-Bromo-phenyl)-(6R*)-6-[(2-(2-chloro-phenyl)-acetylamino)-methyl]-(4S*,7R*)-[4,7-ethenylene-spiro[2.4]heptane]-5-carboxamide], the 50% effective concentration (EC50) amounted to 1730 nM on human FPRL2 and 61 nM on human ALX receptor.

`O=C(N[C@H]1CC[C@H](O)CC1)[C@H]1[C@H](C(=O)Nc2ccc(Br)cc2)[C@@H]2C=C[C@H]1C21CC1` (racemic) [Example 23, (5R*)—N^5-(4-Bromophenyl)-(6R*)—N^6-(4-hydroxy-cyclohexyl)-(4S*,7R*)-[4,7-ethenylene-spiro[2.4]heptane]-5,6-dicarboxamide]: the concentration giving a half-maximal response (EC50) is above 25000 nM at human FPRL2 and 3.3 nM on human ALX receptor.

With `CC(=O)c1ccc(NC(=O)[C@H]2[C@H](C(=O)NCCCCN3CCCC3)[C@H]3C=C[C@@H]2C32CC2)cc1` (racemic) [Example 192, (5R*)—N^5-(4-Acetyl-phenyl)-(6R*)—N^6-(4-pyrrolidin-1-yl-butyl)-(4S*,7R*)-[4,7-ethenylene-spiro[2.4]heptane]-5,6-dicarboxamide], the EC50 at human FPRL2 came out at 139 nM; on human ALX receptor, 23 nM.

Consider `CC(NC(=O)C1C(C(=O)NCCCCN2CCCC2)C2C=CC1C21CC1)c1ccc(Br)cc1` (mixture of isomers) [Example 132, (5R*)—N^5-(1-(4-Bromophenyl)-ethyl)-(6R*)—N^6-(4-pyrrolidin-1-yl-butyl)-(4S*,7R*)-[4,7-ethenylene-spiro[2.4]heptane]-5,6-dicarboxamide], for which the EC50 is 79 nM on human FPRL2 and 898 nM at human ALX receptor.

Turning to `Cc1ccc(CCNC(=O)[C@H]2[C@H](C(=O)NCCCCN3CCCC3)[C@H]3C=C[C@@H]2C32CC2)cc1C` (racemic) [Example 380, (5R*)—N^5-(2-(3,4-Dimethylphenyl)ethyl)-(6R*)—N^6-(4-pyrrolidino-butyl)-(4S*,7R*)-[4,7-ethenylene-spiro[2.4]heptane]-5,6-dicarboxamide], the EC50 at human FPRL2 is 103 nM; at human ALX receptor, above 25000 nM.

On to `O=C(NCCCCN1CCCC1)[C@H]1[C@H](C(=O)NCc2ccc(Br)cc2F)[C@@H]2C=C[C@H]1C21CC1` (racemic) [Example 203, (5R*)—N^5-(2-Fluoro-4-bromophenyl-methyl)-(6R*)—N^6-(4-pyrrolidin-1-yl-butyl)-(4S*,7R*)-[4,7-ethenylene-spiro[2.4]heptane]-5,6-dicarboxamide], for which the values for the EC50 at human FPRL2 and at human ALX receptor were 200 nM and 24 nM, respectively.

For `COc1ccc(NC(=O)[C@H]2[C@H](C(=O)NCCCCN3CCCC3)[C@H]3C=C[C@@H]2C32CC2)cn1` (racemic) [Example 250, (5R*)—N^5-(2-Methoxy-pyrid-5-yl)-(6R*)—N^6-(4-pyrrolidin-1-yl-butyl)-(4S*,7R*)-[4,7-ethenylene-spiro[2.4]heptane]-5,6-dicarboxamide], the EC50 on human FPRL2 was 746 nM; on human ALX receptor, 673 nM.

For the compound `O=C(NCCCN1CCCC1)[C@H]1[C@H](C(=O)Nc2ncc(Br)s2)[C@@H]2C=C[C@H]1C21CC1` (racemic) [Example 237, (5R*)—N^5-(5-Bromo-thiazol-2-yl)-(6R*)—N^6-(3-pyrrolidin-1-yl-propyl)-(4S*,7R*)-[4,7-ethenylene-spiro[2.4]heptane]-5,6-dicarboxamide], the results for the EC50 at human FPRL2 and at human ALX receptor were 542 nM and 305 nM, respectively.

In the case of `CN1CCC(NC(=O)[C@H]2[C@H](C(=O)Nc3ccc(Br)cc3)[C@@H]3C=C[C@H]2C32CC2)CC1` (racemic) [Example 86, (5R*)—N^5-(4-Bromophenyl)-(6R*)—N^6—(N-methyl-piperidin-4-yl)-(4S*,7R*)-[4,7-ethenylene-spiro[2.4]heptane]-5,6-dicarboxamide], the 50% effective concentration (EC50) on human FPRL2 amounted to 6940 nM; at human ALX receptor, 147 nM.

On to `Cc1ccc(NC(=O)[C@H]2[C@H](C(=O)NCCCCN3CCCC3)[C@H]3C=C[C@@H]2C32CC2)nc1` (racemic) [Example 121, (5R*)—N^5-(5-Methyl-pyridin-2-yl)-(6R*)—N^6-(4-pyrrolidin-1-yl-butyl)-(4S*,7R*)-[4,7-ethenylene-spiro[2.4]heptane]-5,6-dicarboxamide], for which the EC50 on human FPRL2 was found to be 454 nM; on human ALX receptor, 95 nM.

As to `CN(C)CCCCCNC(=O)[C@H]1[C@H](C(=O)Nc2ccc(Br)cc2)[C@@H]2CC[C@H]1C21CC1` (racemic) [Example 109, (5R*)—N^5-(4-Bromophenyl)-(6R*)—N^6-(5-(dimethyl-amino)-pentyl)-(4S*,7R*)-[4,7-ethylene-spiro[2.4]heptane]-5,6-dicarboxamide], the values for the EC50 on human FPRL2 and on human ALX receptor were 666 nM and 0.7 nM, respectively.

`COCC(Cc1ccccc1)NC(=O)C1C(C(=O)Nc2ccc(Br)cc2)C2C=CC1C21CC1` [Example 100, (5R*)—N^5-(4-Bromophenyl)-(6R*)—N^6-[(1S)-2-methoxy-1-benzyl-ethyl]-(4S*,7R*)-[4,7-ethenylene-spiro[2.4]heptane]-5,6-dicarboxamide]: the figures for the EC50 at human FPRL2 and on human ALX receptor were 6110 nM and 735 nM, respectively.

As to `NCCCCCNC(=O)[C@H]1[C@H](C(=O)NCc2ccc(Br)cc2F)[C@@H]2C=C[C@H]1C21CC1` [Example 319, (5R)—N^5-(4-Bromo-2-fluorophenyl-methyl)-(6R)—N^6-(5-amino-pentyl)-(4S,7R)-[4,7-ethenylene-spiro[2.4]heptane]-5,6-dicarboxamide], the half-maximal effective concentration (EC50) worked out at 331 nM on human FPRL2 and 55 nM at human ALX receptor.

For `O=C(NCCCCN1CCCC1)C1C(C(=O)Nc2ccc(Br)nc2)C2C=CC1C21CC1` (racemic) [Example 114, (5R*)—N^5-(2-Bromopyridin-5-yl)-(6R*)—N^6-(4-pyrrolidin-1-yl-butyl)-(4S*,7R*)-[4,7-ethenylene-spiro[2.4]heptane]-5,6-dicarboxamide], the EC50 on human FPRL2 is 532 nM; at human ALX receptor, 1.4 nM.

Turning to `CNCCCNC(=O)[C@H]1[C@H](C(=O)Nc2ncc(Br)s2)[C@@H]2CC[C@H]1C21CC1` [Example 414, (5R)—N^5-(5-Bromothiazol-2-yl)-(6R)—N^6-(3-(N-methylamino)-propyl)-(4S,7R)-[4,7-ethylene-spiro[2.4]heptane]-5,6-dicarboxamide], the EC50 on human FPRL2 amounted to 773 nM; at human ALX receptor, 14 nM.

Take `CCCCNC(=O)[C@H]1[C@H](C(=O)Nc2ccc(Br)cc2)[C@@H]2C=C[C@H]1C21CC1` (relative stereo) [Example 74, (5R*)—N^5-(4-Bromophenyl)-(6R*)—N^6-(butyl)-(4S*,7R*)-[4,7-ethenylene-spiro[2.4]heptane]-5,6-dicarboxamide]: the results for the EC50 on human FPRL2 and on human ALX receptor were 18200 nM and 72 nM, respectively.

On to `CN(C)CCNC(=O)[C@H]1[C@H](C(=O)Nc2ccc(Br)cc2)[C@@H]2C=C[C@H]1C21CC1` [Example 6, (5R)—N^5-(4-Bromophenyl)-(6R)—N^6-(2-N,N-dimethyl-amino-ethyl)-(4S,7R)-[4,7-ethenylene-spiro[2.4]heptane]-5,6-dicarboxamide], for which the EC50 at human FPRL2 came out at 1260 nM; at human ALX receptor, 0.41 nM.

Turning to `O=C(NCCCCN1CCC1)[C@H]1[C@H](C(=O)Nc2ccc(Br)cc2)[C@@H]2C=C[C@H]1C21CC1` [Example 210, (5R)—N^5-(4-Bromophenyl)-(6R)—N^6-(4-(azetidin-1-yl)butyl)-(4S,7R)-[4,7-ethenylene-spiro[2.4]heptane]-5,6-dicarboxamide], the EC50 on human FPRL2 was found to be 200 nM; at human ALX receptor, 0.4 nM.

For the compound `CCN(CC)CCCCNC(=O)[C@H]1[C@H](C(=O)NCc2nc(C(C)=O)cs2)[C@@H]2C=C[C@H]1C21CC1` (racemic) [Example 262, (5R*)—N^5-(4-Acetyl-thiazol-2-yl-methyl)-(6R*)—N^6-(4-diethylamino-butyl)-(4S*,7R*)-[4,7-ethenylene-spiro[2.4]heptane]-5,6-dicarboxamide], the EC50 on human FPRL2 worked out at 106 nM; on human ALX receptor it was 97 nM.

As for `CC(=O)c1ncc(CNC(=O)[C@H]2[C@H](C(=O)NCCCCN3CCCC3)[C@H]3C=C[C@@H]2C32CC2)s1` (racemic) [Example 224, (5R*)—N^5-(2-Acetyl-thiazol-5-yl-methyl)-(6R*)—N^6-(4-pyrrolidin-1-yl-butyl)-(4S*,7R*)-[4,7-ethenylene-spiro[2.4]heptane]-5,6-dicarboxamide], the EC50 on human FPRL2 was 1860 nM; on human ALX receptor it was 994 nM.
